Measurements from US20210002231A1 (Centre National de la Recherche Scientifique, priority 2018, published 2021).
Starred links: 1 amine or outer side, 2 acyl side, 3 side chain; linkers in the order of their positions; H or OH if unused. Non-standard residues stand in square brackets, D forms with d. Residues, ends and D or L forms follow the SMILES beside them. Nva(5-(4-Bn-piperidin-1-yl)) = N[C@@H](CCCN1CCC(Cc2ccccc2)CC1)C(=O)O; X5 = O=C1[C@@H](N[*:1])Cc2ccccc2CN1CCCC(=O)[*:2]; X1 = O=C1[C@@H](N[*:1])Cc2ccccc2CN1CCC(=O)[*:2]; Dmt = Cc1cc(O)cc(C)c1C[C@H](N)C(=O)O; NMeβAla = CN(CCC(=O)[*:2])[*:1]

How the values were obtained:
human MOPr [1] = molecular target: T1, human MOPr (Homo sapiens, UniProt P35372); assay: BRET1 β-arrestin-2 recruitment assay; type: cell-based; set-up: expressed in transfected cells; host or cells: HEK293 cells stably expressing eYFP-β-arrestin-2, transiently transfected with the Rluc8-MOP plasmid; conditions: for EC50: Table 3B, — = non-detectable recruitment, read-out: MOPr (β-arrestin-2) EC50; for Emax: read-out: MOPr (β-arrestin-2) Emax;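 for Emax: Emax relative to maximal DAMGO-induced BRET as 100%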;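 for MOPr (β-arrestin-2) Emax: Emax relative to maximal DAMGO-induced BRET as 100%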
T1 sequence (P35372 whole entry): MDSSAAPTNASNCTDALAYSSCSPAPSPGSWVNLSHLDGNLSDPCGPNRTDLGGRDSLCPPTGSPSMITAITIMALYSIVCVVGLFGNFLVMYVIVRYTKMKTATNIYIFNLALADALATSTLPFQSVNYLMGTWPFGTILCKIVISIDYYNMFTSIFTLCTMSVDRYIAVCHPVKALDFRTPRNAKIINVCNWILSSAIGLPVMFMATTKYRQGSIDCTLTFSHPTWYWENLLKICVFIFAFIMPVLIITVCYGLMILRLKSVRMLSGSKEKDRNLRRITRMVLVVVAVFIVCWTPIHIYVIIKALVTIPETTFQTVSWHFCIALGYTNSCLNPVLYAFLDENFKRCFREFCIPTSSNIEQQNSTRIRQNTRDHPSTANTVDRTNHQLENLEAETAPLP
Protocol: Peak response amplitudes were normalized to basal and maximal (cells permeabilized with 20 μM digitonin) fluorescence levels. 1.8. β-Arrestin-2 recruitment assay The β-arrestin-2 recruitment assay was performed as described [34; 45] with minor modifications. Briefly, two days prior the experiment, HEK293 cells stably expressing eYFP-tagged β-arrestin-2 were transfected with the plasmid encoding Rluc8-MOP receptor. β-Arrestin-2 recruitment was measured at 37° C. in presence of 5 μM Coelenterazine H, 5 min after agonist addition.

human MOPr [2] = molecular target: T1, human MOPr; assay: cell-based; type: cell-based; set-up: expressed in transfected cells; HEK293-Glo20F cells (cAMP); conditions: for EC50: read-out: MOPr (cAMP) EC50; for Emax: read-out: MOPr (cAMP) Emax
Protocol: (§1) Stimulation by endogenous RF-amide peptides or test compounds for [^35S]-GTPγS binding to membranes from CHO cells expressing human NPFF1R or NPFF2R, were examined as reported. 1.6. Glo-Sensor cAMP Assay cAMP accumulation assay was essentially done as described with the following modifications: HEK293 cells stably expressing cAMP Glosensor-20F were used, with or without additional stable expression of each individual opioid receptor or NPFF1R. The cAMP responses were measured in presence of D-luciferin (1 mM).

human NPFF1R [3] = molecular target: T2, human NPFF1R (Homo sapiens, UniProt Q9GZQ6); assay: Radioligand competition binding with [125I]-1-DMe-NPFF; set-up: expressed in transfected cells; HEK293-Glo20F cells (cAMP)
T2 sequence (Q9GZQ6 whole entry): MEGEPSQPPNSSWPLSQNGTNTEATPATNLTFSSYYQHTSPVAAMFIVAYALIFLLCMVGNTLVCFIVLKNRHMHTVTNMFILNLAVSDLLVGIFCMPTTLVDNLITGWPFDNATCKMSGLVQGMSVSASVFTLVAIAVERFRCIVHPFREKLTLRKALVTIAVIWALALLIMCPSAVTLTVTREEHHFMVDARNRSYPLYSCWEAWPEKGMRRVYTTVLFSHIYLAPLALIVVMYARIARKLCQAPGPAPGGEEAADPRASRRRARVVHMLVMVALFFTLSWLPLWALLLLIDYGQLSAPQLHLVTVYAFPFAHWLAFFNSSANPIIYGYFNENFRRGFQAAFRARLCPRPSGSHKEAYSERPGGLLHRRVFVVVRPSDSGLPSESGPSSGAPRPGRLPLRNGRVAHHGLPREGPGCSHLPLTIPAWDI

NPFF2R [4] = molecular target: T3, NPFF2R (Homo sapiens, UniProt Q9Y5X5); assay: as above; set-up: expressed in transfected cells; HEK293-Glo20F cells (cAMP)
T3 sequence (Q9Y5X5 whole entry): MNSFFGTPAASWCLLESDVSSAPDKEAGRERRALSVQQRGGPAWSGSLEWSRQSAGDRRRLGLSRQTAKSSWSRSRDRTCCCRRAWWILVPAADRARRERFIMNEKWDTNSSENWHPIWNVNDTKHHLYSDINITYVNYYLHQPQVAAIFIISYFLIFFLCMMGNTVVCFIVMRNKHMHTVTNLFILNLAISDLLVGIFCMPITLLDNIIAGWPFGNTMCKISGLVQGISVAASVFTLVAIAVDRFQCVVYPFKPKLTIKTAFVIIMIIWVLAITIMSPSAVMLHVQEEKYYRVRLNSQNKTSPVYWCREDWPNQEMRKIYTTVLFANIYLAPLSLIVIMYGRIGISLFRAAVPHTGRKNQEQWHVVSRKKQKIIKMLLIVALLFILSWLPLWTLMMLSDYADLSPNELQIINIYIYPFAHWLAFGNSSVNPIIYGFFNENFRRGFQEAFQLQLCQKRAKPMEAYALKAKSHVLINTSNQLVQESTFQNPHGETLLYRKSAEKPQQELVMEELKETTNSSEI

human MOPr [5] = molecular target: T1, human MOPr; assay: Radioligand competition binding with [3H]-diprenorphine; set-up: expressed in transfected cells; HEK293-Glo20F cells (cAMP)
NPFF2R [6] = molecular target: T3, NPFF2R; assay: [35S]-GTPγS binding assay; type: biochemical; set-up: expressed in transfected cells
Protocol: as §1

human NPFF1R [7] = molecular target: T2, human NPFF1R; assay: [35S]-GTPγS binding assay; type: biochemical; set-up: expressed in transfected cells; conditions: for Emax: relative to RFRP3
Protocol: as §1

[8] = Table 3a, HEK293-Glo20F-hMOPr cells
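Throughout, for MOPr (cAMP) Emax: Emax relative to DAMGO as 100%.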

| SMILES | EC50 (human MOPr [1]) [nM] | Emax (human MOPr [1]) [%] | EC50 (human MOPr [2]; Table 3B) [nM] | Emax (human MOPr [2]) [%] | IC50 (human NPFF1R [3]) [nM] | IC50 (NPFF2R [4]) [nM] | Ki (human MOPr [5]) [nM] | EC50 (NPFF2R [6]) [nM] | Emax (NPFF2R [6]) [%] | EC50 (human NPFF1R [7]) [nM] | Emax (human NPFF1R [7]) [%] | EC50 (human MOPr [2]; [8]) [nM] | Ki (human NPFF1R [3]) [nM] | Ki (NPFF2R [4]) [nM] | β-arrestin-2 recruitment (human MOPr [1]; in words) | MOPr-induced G protein activation (human MOPr [2]; in words) |
| --- | --- | --- | --- | --- | --- | --- | --- | --- | --- | --- | --- | --- | --- | --- | --- | --- |
| Cc1cc(O)cc(C)c1C[C@H](N)C(=O)N[C@H](CCCNC(=N)N)C(=O)N[C@H]1Cc2ccccc2CN(CCCC(=O)N[C@@H](CCCN2CCC(Cc3ccccc3)CC2)C(=O)N[C@H](C(N)=O)C(C)C)C1=O [DP0020, H-Dmt-D-Arg-AbaGABA-Bpa-Val-NH2] (H-[Dmt][dR][X5][Nva(5-(4-Bn-piperidin-1-yl))]V-NH2) | 149 | 53 | 6.3 | 101 | 40 to 400 | 40 to 400 |  |  |  |  |  |  |  |  |  |  |
| Cc1cc(O)cc(C)c1C[C@H](N)C(=O)N[C@H](CCCNC(=N)N)C(=O)N[C@H]1Cc2ccccc2CN(CCCC(=O)N[C@@H](CCCN2CCC(Cc3ccccc3)CC2)C(=O)N[C@@H](Cc2ccccc2)C(N)=O)C1=O [DP0018, H-Dmt-D-Arg-AbaGABA-Bpa-Phe-NH2] (H-[Dmt][dR][X5][Nva(5-(4-Bn-piperidin-1-yl))]F-NH2) | 95.8 | 31 | 5.5 | 108 | 40 to 400 | < 40 |  |  |  |  |  |  |  |  |  |  |
| Cc1cc(O)cc(C)c1C[C@H](N)C(=O)N[C@H](CCCNC(=N)N)C(=O)N[C@@H](Cc1ccccc1)C(=O)NCCC(=O)N[C@@H](CCCN1CCC(Cc2ccccc2)CC1)C(=O)N[C@@H](Cc1ccccc1)C(N)=O [DP0019, H-Dmt-D-Arg-Phe-β-Ala-Bpa-Phe-NH2] (HELM PEPTIDE1{[Cc1cc(O)cc(C)c1C[C@H](N)C(=O)[*:2]].[dR].F.[bAla].[O=C([C@H](CCCN1CCC(Cc2ccccc2)CC1)N[*:1])[*:2]].F.[am]}$$$$V2.0) | 162 | 53 | 4 ± 0.4 | 101 ± 1 | 40 to 400 | 40 to 400 |  |  |  |  |  |  |  |  |  |  |
| Cc1cc(O)cc(C)c1C[C@H](N)C(=O)N[C@H](CCCNC(=N)N)C(=O)N[C@H]1Cc2ccccc2CNC1=O [KGFF12, H-Dmt-D-Arg-Aba-NH] |  |  |  | 103 ± 4 |  |  | 0.17 ± 0.05 | > 10000 | 32 ± 17 | > 10000 | 13 ± 3 | 2.7 ± 1.5 | 2490 | 375 ± 108 |  |  |
| Cc1cc(O)cc(C)c1C[C@H](N)C(=O)N[C@H](CCCNC(=N)N)C(=O)N[C@@H](Cc1ccccc1)C(N)=O [KGFF07, H-Dmt-D-Arg-Phe-NH2] (HELM PEPTIDE1{[Cc1cc(O)cc(C)c1C[C@H](N)C(=O)[*:2]].[dR].F.[am]}$$$$V2.0) |  |  |  | 102 ± 2 |  |  | 0.29 ± 0.13 | 1930 | 87 ± 2 | 87 ± 7 | 84 ± 8 | 1.7 ± 0.4 | 11.8 ± 3.6 | 84 ± 26 |  |  |
| Cc1cc(O)cc(C)c1C[C@H](N)C(=O)N[C@H](CCCNC(=N)N)C(=O)N[C@H]1Cc2c(ccc3ccccc23)CN(CC(=O)N[C@@H](CCCN2CCC(Cc3ccccc3)CC2)C(=O)N[C@@H](Cc2ccccc2)C(N)=O)C1=O [DP0012, H-Dmt-D-Arg-1AnaGly-Bpa-Phe-NH2] | 650 | 22 | 15.1 ± 0.4 | 90 ± 2 | < 40 | < 40 |  |  |  |  |  |  |  |  |  |  |
| Cc1cc(O)cc(C)c1C[C@H](N)C(=O)N[C@@H](CCCN1CCCCC1)C(=O)N[C@@H](Cc1ccccc1)C(N)=O [KGFF10, H-Dmt-Apa-Phe-NH2] |  |  |  | 91 ± 10 |  |  | 68 ± 48 |  |  |  |  | 598 ± 35 | > 10000 | 2100 |  |  |
| Cc1cc(O)cc(C)c1C[C@H](N)C(=O)N[C@H](CCCNC(=N)N)C(=O)N[C@H]1Cc2ccccc2CN(CCC(=O)N[C@@H](CCCN2CCC(Cc3ccccc3)CC2)C(=O)N[C@@H](Cc2c[nH]c3ccccc23)C(N)=O)C1=O [DP0005, H-Dmt-D-Arg-Aba-β-Ala-Bpa-Trp-NH2] (H-[Dmt][dR][X1][Nva(5-(4-Bn-piperidin-1-yl))]W-NH2) | 98 | 42 | 7.9 ± 0.5 | 81 ± 0.6 | ~50 | < 50 |  |  |  |  |  |  |  |  |  |  |
| Cc1cc(O)cc(C)c1C[C@H](N)C(=O)N(C)[C@H](C)C(=O)N[C@H]1Cc2c(ccc3ccccc23)CN(CC(=O)N[C@@H](CCCN2CCC(Cc3ccccc3)CC2)C(=O)N[C@@H](Cc2ccccc2)C(N)=O)C1=O [DP0014, H-Dmt-N(Me)-D-Ala-1AnaGly-Bpa-Phe-NH2] |  |  | 5.3 | 76 | < 40 | ~40 |  |  |  |  |  |  |  |  | non-detectable | significant |
| Cc1cc(O)cc(C)c1C[C@H](N)C(=O)N[C@H](CCCNC(=N)N)C(=O)N[C@H]1Cc2ccccc2CN(CCC(=O)N[C@@H](CCCN2CCCCC2)C(=O)N[C@@H](Cc2ccccc2)C(N)=O)C1=O [KGFF08, H-Dmt-D-Arg-Aba-β-Ala-Apa-Phe-NH2] |  |  |  | 102 ± 3 |  |  | 0.94 ± 0.19 | 574 ± 129 | 97 ± 2 |  | 23 ± 1 | 9.9 ± 2 |  | 3.9 ± 0.1 |  |  |
| Cc1cc(O)cc(C)c1C[C@H](N)C(=O)N[C@@H](CCCNC(=N)N)C(=O)N[C@@H](Cc1ccccc1)C(N)=O [KGFF06, H-Dmt-Arg-Phe-NH2] (HELM PEPTIDE1{[Cc1cc(O)cc(C)c1C[C@H](N)C(=O)[*:2]].R.F.[am]}$$$$V2.0) |  |  |  |  |  |  | 46 ± 22 |  |  |  |  | 2300 | 147 ± 20 | 15.9 ± 1.8 |  |  |
| Cc1cc(O)cc(C)c1C[C@H](N)C(=O)N[C@H](CCCNC(=N)N)C(=O)N[C@H]1Cc2ccccc2CN(CCC(=O)N[C@@H](CCCN2CCC(Cc3ccccc3)CC2)C(=O)N[C@@H](Cc2ccc(O)cc2)C(N)=O)C1=O [DP0004, H-Dmt-D-Arg-Aba-β-Ala-Bpa-Tyr-NH2] (H-[Dmt][dR][X1][Nva(5-(4-Bn-piperidin-1-yl))]Y-NH2) | 126 | 64 | 4.2 ± 0.7 | 88 ± 4 | 50 to 500 | < 50 |  |  |  |  |  |  |  |  |  |  |
| Cc1cc(O)cc(C)c1C[C@H](N)C(=O)N[C@H](CCCNC(=N)N)C(=O)N[C@@H](Cc1ccccc1)C(=O)N[C@@H](CCCN)C(=O)N[C@@H](Cc1ccccc1)C(N)=O [KGFF05, H-Dmt-D-Arg-Phe-Orn-Phe-NH2] (HELM PEPTIDE1{[Cc1cc(O)cc(C)c1C[C@H](N)C(=O)[*:2]].[dR].F.[Orn].F.[am]}$$$$V2.0) |  |  |  | 94 ± 2 |  |  | 3.2 ± 1.1 |  |  |  |  | 59.3 ± 24.5 | 3100 | 360 ± 50 |  |  |
| Cc1cc(O)cc(C)c1C[C@H](N)C(=O)N[C@H](CCCNC(=N)N)C(=O)N[C@H]1Cc2ccccc2CN(CCCC(=O)N[C@@H](CCCN2CCC(Cc3ccccc3)CC2)C(=O)N[C@@H](Cc2c[nH]c3ccccc23)C(N)=O)C1=O [DP0022, H-Dmt-D-Arg-AbaGABA-Bpa-Trp-NH2] (H-[Dmt][dR][X5][Nva(5-(4-Bn-piperidin-1-yl))]W-NH2) | 617 ± 205 | 30 ± 0.7 | 5 | 90 | ~40 | < 40 |  |  |  |  |  |  |  |  |  |  |
| Cc1cc(O)cc(C)c1C[C@H](N)C(=O)N[C@H](CCCNC(=N)N)C(=O)N[C@H]1Cc2c(ccc3ccccc23)CN(CC(=O)N[C@@H](CCCN2CCC(Cc3ccccc3)CC2)C(=O)N[C@H](C(N)=O)C(C)C)C1=O [DP0021, H-Dmt-D-Arg-1AnaGly-Bpa-Val-NH2] | 109 ± 57 | 22 | 2.8 ± 0.4 | 102 ± 3 | 40 to 400 | < 40 |  |  |  |  |  |  |  |  |  |  |
| Cc1cc(O)cc(C)c1C[C@H](N)C(=O)N[C@@H](CCCN1CCC(Cc2ccccc2)CC1)C(=O)N[C@@H](Cc1ccccc1)C(N)=O [KGFF11, H-Dmt-Bpa-Phe-NH2] |  |  |  |  |  |  | > 10000 |  |  |  |  | > 10000 | 2720 | 406 ± 95 |  |  |
| Cc1cc(O)cc(C)c1C[C@H](N)C(=O)N[C@H](CCCNC(=N)N)C(=O)N[C@@H](Cc1ccccc1)C(=O)N(C)CCC(=O)N[C@@H](CCCN1CCC(Cc2ccccc2)CC1)C(=O)N[C@@H](Cc1ccccc1)C(N)=O [DP0013, H-Dmt-D-Arg-Phe-N(Me)-β-Ala-Bpa-Phe-NH2] (H-[Dmt][dR]F[NMeβAla][Nva(5-(4-Bn-piperidin-1-yl))]F-NH2) | 20.5 | 101 | 0.53 ± 0.004 | 115 ± 4 | < 40 | ~40 |  |  |  |  |  |  |  |  |  |  |
| Cc1cc(O)cc(C)c1C[C@H](N)C(=O)N[C@H](CCCNC(=N)N)C(=O)N[C@H]1Cc2ccccc2CN(CC(=O)N[C@@H](CCCNC(=N)N)C(=O)N[C@@H](Cc2ccccc2)C(=O)O)C1=O [KGFF02, H-Dmt-D-Arg-Aba-Gly-Arg-Phe-OH] |  |  |  | 89 ± 2 |  |  | 0.59 ± 0.15 |  |  |  |  | 1.5 ± 0.7 | 2540 | 251 ± 25 |  |  |
